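Abbreviation: GI50, concentration required for 50% inhibition of growth. Definition used: TGI = concentration required for complete inhibition of growth.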
Experiments:
Experiment in all cases: inhibition of tumour cell growth, NCI panel, 384-well format
MDA-MB-231 breast = tested on: MDA-MB-231 breast
U251 glioblastoma = tested on: U251 glioblastoma
SK-MEL-5 melanoma = tested on: SK-MEL-5 melanoma
CAKI-1 renal = tested on: CAKI-1 renal
UO-31 renal = tested on: UO-31 renal
MDA-MB-468 breast = tested on: MDA-MB-468 breast
UACC-257 melanoma = tested on: UACC-257 melanoma
OVCAR-8 ovarian = tested on: OVCAR-8 ovarian
CCRF-CEM leukemia = tested on: CCRF-CEM leukemia
RXF 393 renal = tested on: RXF 393 renal
HL-60(TB) leukemia = tested on: HL-60(TB) leukemia
NCI/ADR-RES ovarian = tested on: NCI/ADR-RES ovarian
SK-MEL-28 melanoma = tested on: SK-MEL-28 melanoma
OVCAR-5 ovarian = tested on: OVCAR-5 ovarian
TK-10 renal = tested on: TK-10 renal
MALME-3M melanoma = tested on: MALME-3M melanoma
HOP-62 NSCLC = tested on: HOP-62 NSCLC
HCT-116 colon = tested on: HCT-116 colon
HT29 colon = tested on: HT29 colon
RPMI-8226 leukemia = tested on: RPMI-8226 leukemia
A498 renal = tested on: A498 renal
IGROV1 ovarian = tested on: IGROV1 ovarian
SK-OV-3 ovarian = tested on: SK-OV-3 ovarian
SF-268 CNS = tested on: SF-268 CNS
T-47D breast = tested on: T-47D breast
SN12C renal = tested on: SN12C renal
NCI-H226 lung = tested on: NCI-H226 lung
HOP-92 NSCLC = tested on: HOP-92 NSCLC
K-562 leukemia = tested on: K-562 leukemia
OVCAR-3 ovarian = tested on: OVCAR-3 ovarian
SW-620 colon = tested on: SW-620 colon
HCT-15 colon = tested on: HCT-15 colon
NCI-H23 lung = tested on: NCI-H23 lung
SF-295 CNS = tested on: SF-295 CNS
SK-MEL-2 melanoma = tested on: SK-MEL-2 melanoma
NCI-H460 NSCLC = tested on: NCI-H460 NSCLC
EKVX NSCLC = tested on: EKVX NSCLC
SNB-19 CNS = tested on: SNB-19 CNS
MDA-MB-435 melanoma = tested on: MDA-MB-435 melanoma
MOLT-4 leukemia = tested on: MOLT-4 leukemia
DU-145 prostate = tested on: DU-145 prostate
NCI-H322M lung = tested on: NCI-H322M lung
A549 NSCLC = tested on: A549 NSCLC
M14 melanoma = tested on: M14 melanoma
OVCAR-4 ovarian = tested on: OVCAR-4 ovarian
PC-3 prostate = tested on: PC-3 prostate
ACHN renal = tested on: ACHN renal

## C[C@@H]1CN(C(=O)c2ccc(NC(=O)c3cc(O[C@H](C)c4c(Cl)ccc(F)c4Cl)c(N)nn3)cc2)C[C@H](C)N1
MDA-MB-231 breast
  GI50: 1.74 µM
  TGI: 5.52 µM
U251 glioblastoma
  GI50: 2 µM
  TGI: 5.25 µM
SK-MEL-5 melanoma
  GI50: 1.53 µM
  TGI: 3.48 µM
CAKI-1 renal
  GI50: 2.16 µM
  TGI: 5.69 µM
UO-31 renal
  GI50: 3.53 µM
  TGI: 12.4 µM
MDA-MB-468 breast
  GI50: 1.9 µM
  TGI: 3.7 µM
UACC-257 melanoma
  GI50: 1.69 µM
  TGI: 3.07 µM
OVCAR-8 ovarian
  GI50: 3.44 µM
  TGI: 10.3 µM
CCRF-CEM leukemia
  GI50: 0.395 µM
  TGI: 1.01 µM
RXF 393 renal
  GI50: 1.74 µM
  TGI: 3.27 µM
HL-60(TB) leukemia
  GI50: 1.25 µM
  TGI: 2.51 µM
NCI/ADR-RES ovarian
  GI50: 14.8 µM
  TGI: 28.2 µM
SK-MEL-28 melanoma
  GI50: 2.82 µM
  TGI: 7.32 µM
OVCAR-5 ovarian
  GI50: 1.54 µM
  TGI: 4.7 µM
TK-10 renal
  GI50: 3.5 µM
  TGI: 10.3 µM
MALME-3M melanoma
  GI50: 1.44 µM
  TGI: 3.08 µM
HOP-62 NSCLC
  GI50: 2.42 µM
  TGI: 7.03 µM
HCT-116 colon
  GI50: 1.41 µM
  TGI: 4.34 µM
HT29 colon
  GI50: 1.22 µM
  TGI: 2.59 µM
RPMI-8226 leukemia
  GI50: 0.943 µM
  TGI: 2.49 µM
A498 renal
  GI50: 2.04 µM
  TGI: 3.88 µM
IGROV1 ovarian
  GI50: 2.36 µM
  TGI: 10.2 µM
SK-OV-3 ovarian
  GI50: 5.26 µM
  TGI: 16.2 µM
SF-268 CNS
  GI50: 1.31 µM
  TGI: 3.77 µM
T-47D breast
  GI50: 3.17 µM
  TGI: 8.97 µM
SN12C renal
  GI50: 1.82 µM
  TGI: 11.7 µM
NCI-H226 lung
  GI50: 2.12 µM
  TGI: 8.92 µM
HOP-92 NSCLC
  GI50: 0.66 µM
  TGI: 2.42 µM
K-562 leukemia
  GI50: 0.152 µM
  TGI: 0.319 µM
OVCAR-3 ovarian
  GI50: 2.75 µM
  TGI: 7.2 µM
SW-620 colon
  GI50: 1.69 µM
  TGI: 3.48 µM
HCT-15 colon
  GI50: 2.46 µM
  TGI: 6.88 µM
NCI-H23 lung
  GI50: 0.642 µM
  TGI: 3.76 µM
SF-295 CNS
  GI50: 1.72 µM
  TGI: 5.81 µM
SK-MEL-2 melanoma
  GI50: 1.77 µM
  TGI: 4.27 µM
NCI-H460 NSCLC
  GI50: 1 µM
  TGI: 3.73 µM
EKVX NSCLC
  GI50: 1.52 µM
  TGI: 5.93 µM
SNB-19 CNS
  GI50: 4.02 µM
  TGI: 13.5 µM
MDA-MB-435 melanoma
  GI50: 1.61 µM
  TGI: 6.93 µM
MOLT-4 leukemia
  GI50: 0.181 µM
  TGI: 0.356 µM
DU-145 prostate
  GI50: 3.89 µM
  TGI: 14.5 µM
NCI-H322M lung
  GI50: 5.08 µM
  TGI: 16.1 µM
A549 NSCLC
  GI50: 1.45 µM
  TGI: 5 µM
M14 melanoma
  GI50: 2.47 µM
  TGI: 6.48 µM
OVCAR-4 ovarian
  GI50: 4.1 µM
  TGI: 10.2 µM
PC-3 prostate
  GI50: 2.58 µM
  TGI: 7.16 µM
ACHN renal
  GI50: 3.05 µM
  TGI: 11.1 µM

— PubChem BioAssay (NCI)
